Experimental data published in patent publication US8673866B2, “Stabilized formulation for oral administration of therapeutic agents and related methods” (The University of British Columbia, priority 2009, dated 2014).
Where “and” joins values, the source holds several entries; their conditions need not be identical. Identical values can stand only once.

Tests used:
Leishmania donovani LV82 = experiment: Visceral leishmaniasis-infected murine model (liver LDU, BALB/c mice); format: in vivo
Protocol: (§1) To determine the anti-leishmanial activity of a representative oral AmpB formulation, the following studies were completed. BALB/c mice were intravenously infected with 5×10^7 Leishmania donovani LV82 promastigotes (obtained by culturing amastigotes taken directly from the spleen of an infected hamster) seven days prior to treatment. Following the seven days, mice were either administered five daily doses of miltefosine at 3 mg/kg po, or Formulation A at 2.5, 5, and 10 mg/kg po bid for five consecutive days or 20 mg/kg po qd for five consecutive days. Appropriate vehicle controls were also assessed. Animals were sacrificed 14 days post infection and Leishman-Donovan units (LDU) were assessed in livers of mice post mortem via microscopic enumeration of Giemsa-stained liver smears

[1] = Body and organ weights in the murine VL model; format: in vivo, BALB/c mice
Protocol: as §1

Leishmania = conditions: visceral leishmaniasis, IV administration; cited from earlier work
[2] = crystalline; cited from earlier work
[3] = oral; cited from earlier work
[4] = 3 mg/kg p.o. qd, individual mice

Structure (SMILES): CCCCCCCCCCCCCCCCOP(=O)([O-])OCC[N+](C)(C)C [Miltefosine, miltefosine]
- LDU mean ± SD (Leishmania donovani LV82; 3 mg/kg p.o. qd, group mean (n=4)): 1537.604
- LDU (Leishmania donovani LV82; [4]): 1581.58 and 1431.131 and 1736.921 and 1400.783
- # of amastigotes per 200 nuclei (Leishmania donovani LV82; 3 mg/kg p.o. qd, liver smears, individual mice): 286 and 283 and 301 and 262
- % Reduction compared to Vehicle control (Average) (Leishmania donovani LV82; 3 mg/kg, p.o. qd): 51.7%
- % Reduction compared to water control (Average) (Leishmania donovani LV82; 3 mg/kg, p.o. qd): 49.3%
- inhibition of liver parasites (Leishmania donovani LV82; five daily doses at 3 mg/kg po): 47.5±7.0%
- Body Weight [1, 4]: 19.8 g (2×) and 18.8 g and 18.5 g
- Mean Body Weight Post-treatment ([1]; 3 mg/kg, p.o. qd): 19.2 g
- Mean Body Weight Pre-treatment ([1]; 3 mg/kg, p.o. qd): 19.3 g

Structure (SMILES): C[C@@H]1[C@H](O)[C@@H](C)/C=C/C=C/C=C/C=C/C=C/C=C/C=C/[C@H](O[C@@H]2O[C@H](C)[C@@H](O)[C@H](N)[C@@H]2O)C[C@@H]2O[C@](O)(C[C@@H](O)C[C@@H](O)[C@H](O)CC[C@@H](O)C[C@@H](O)CC(=O)O[C@H]1C)C[C@H](O)[C@H]2C(=O)O (relative stereo) [amphotericin B, [1R-(1R*,3S*,5R*,6R*,9R*,11R*,15S*,16R*,17R*,18S*,19E,21E,23E,25E, 27E,29E,31E,33R*,35S*,36R*,37S,)]-33-[(3-amino-3,6-dideoxy-β-D-mannopyranosyl)oxy]1,3,5,6,9,11,17,37-octahydroxy-15,16,18-trimethyl-13-oxo-14,39-dioxabicyclo-[33.3.1]nonatriaconta-19,21,23,25,27,29,31-heptaene-36-carboxylic acid]
- cure rate (Leishmania): 97%
- solubility in water [2]: insoluble
- bioavailability [3]: negligible
